Assay results: ChEMBL document CHEMBL3244262, “A Fujita--Ban structure--activity analysis of 44 steroids” (1978)

The compounds below were run on Rattus norvegicus (assay: Glucocorticoid activity in sc dosed bilaterally adrenalectomized rat assessed as glycogen deposition in liver administered for 5 days relative to cortisol).
Type: functional

Row | SMILES | log(activity)
1 | C[C@]12CCC(=O)C=C1CC[C@@H]1[C@@H]2C(=O)C[C@@]2(C)[C@H]1CC[C@]2(O)C(=O)CO [CORTISONE] | -0.46
2 | C[C@@H]1C[C@@]2(C)C(=CC1=O)CC[C@@H]1[C@@H]2[C@@H](O)C[C@@]2(C)[C@H]1CC[C@]2(O)C(=O)CO | 0.64
3 | CC(=O)[C@H]1CC[C@H]2[C@@H]3C[C@H](F)C4=CC(=O)CC[C@]4(C)[C@H]3C(=O)C[C@]12C | -1.15
4 | C[C@H]1C[C@H]2[C@@H]3CC[C@](O)(C(=O)CO)[C@@]3(C)C[C@H](O)[C@]2(F)[C@@]2(C)C=CC(=O)C=C12 | 1.15
5 | CC(=O)OCC(=O)[C@@]1(O)CC[C@H]2[C@@H]3C[C@H](C)C4=CC(=O)CC[C@]4(C)[C@H]3C(=O)C[C@@]21C | -0.1
6 | C[C@]12C=CC(=O)C=C1CC[C@H]1[C@@H]3C[C@@H](O)[C@](O)(C(=O)CO)[C@@]3(C)C[C@H](O)[C@@]12F [TRIAMCINOLONE] | 1.03
7 | CC(=O)[C@H]1CC[C@H]2[C@@H]3CCC4=CC(=O)[C@H](C)C[C@]4(C)[C@@]3(F)C(=O)C[C@]12C | -0.01
8 | C[C@]12CCC(=O)C=C1C=C[C@@H]1[C@@H]2[C@@H](O)C[C@@]2(C)[C@H]1CC[C@]2(O)C(=O)CO | -0.15
9 | C[C@]12C=CC(=O)C=C1CC[C@@H]1[C@@H]2[C@@H](O)C[C@@]2(C)[C@H]1CC[C@]2(O)C(=O)CO [PREDNISOLONE] | 0.43
10 | C[C@]12C[C@H](O)[C@H]3[C@@H](CCC4=CC(=O)CC[C@@]43C)[C@@H]1CC[C@@H]2C(=O)CO [CORTICOSTERONE] | -0.55
11 | CC(=O)[C@H]1[C@H](C)C[C@H]2[C@@H]3CCC4=CC(=O)CC[C@]4(C)[C@@]3(F)C(=O)C[C@@]21C | -0.11
12 | C[C@]12CCC(=O)C=C1CC[C@H]1[C@@H]3C[C@@H](O)[C@](O)(C(=O)CO)[C@@]3(C)C[C@H](O)[C@@]12F | 0.53
13 | C[C@@H]1C[C@H]2[C@@H]3C[C@H](F)C4=CC(=O)CC[C@]4(C)[C@H]3CC[C@]2(C)[C@@]1(O)C(=O)CO | -0.6
14 | CC(=O)[C@H]1CC[C@H]2[C@@H]3C[C@H](F)C4=CC(=O)CC[C@]4(C)[C@@]3(F)[C@@H](O)C[C@]12C | 0.06
15 | CC(=O)[C@@]1(O)CC[C@H]2[C@@H]3CCC4=CC(=O)[C@H](C)C[C@]4(C)[C@@]3(F)[C@@H](O)C[C@@]21C | -0.11
16 | C[C@H]1C[C@@H]2[C@H]([C@@H](O)C[C@@]3(C)[C@H]2CC[C@]3(O)C(=O)CF)[C@@]2(C)CCC(=O)C=C12 | 0.29

Row | SMILES | log(activity)
17 | CC(=O)[C@H]1CC[C@H]2[C@@H]3C[C@H](C)C4=CC(=O)CC[C@]4(C)[C@H]3C(=O)C[C@]12C | 0.12
18 | C[C@]12CCC(=O)C=C1CC[C@@H]1[C@@H]2[C@@H](O)C[C@@]2(C)[C@H]1CC[C@]2(O)C(=O)CO [HYDROCORTISONE] | 0
19 | C[C@]12CC(=O)[C@H]3[C@@H](CCC4=CC(=O)CC[C@@]43C)[C@@H]1CC[C@@H]2C(=O)CO | -0.31
20 | CC(=O)C1(C(C)=O)CC[C@H]2[C@@H]3CCC4=CC(=O)CC[C@]4(C)[C@@]3(F)[C@@H](O)C[C@@]21C | -0.7
21 | CC(=O)[C@@]1(O)CC[C@H]2[C@@H]3C[C@H](C)C4=CC(=O)CC[C@]4(C)[C@H]3[C@@H](O)C[C@@]21C | 0.36
22 | C[C@]12C=CC(=O)C=C1CC[C@@H]1[C@@H]2C(=O)C[C@@]2(C)[C@H]1CC[C@]2(O)C(=O)CO [PREDNISONE] | 0.32
23 | C[C@]12C=CC(=O)C=C1C=C[C@@H]1[C@@H]2[C@@H](O)C[C@@]2(C)[C@H]1CC[C@]2(O)C(=O)CO | 0.08
24 | CC(=O)[C@H]1CC[C@H]2[C@@H]3C[C@H](C)C4=CC(=O)CC[C@]4(C)[C@@]3(F)[C@@H](O)C[C@]12C | 0.34
25 | CC(=O)[C@H]1CC[C@H]2[C@@H]3CCC4=CC(=O)[C@H](C)C[C@]4(C)[C@@]3(F)[C@@H](O)C[C@]12C | -0.28
26 | CC(=O)[C@@]1(O)[C@H](O)C[C@H]2[C@@H]3CCC4=CC(=O)C=C[C@]4(C)[C@@]3(F)[C@@H](O)C[C@@]21C | 0.93
27 | CC(=O)[C@H]1CC[C@H]2[C@@H]3CCC4=CC(=O)CC[C@]4(C)[C@@]3(F)[C@@H](O)C[C@]12C | -1.3
28 | C[C@H]1C[C@@H]2[C@H]([C@@H](O)C[C@@]3(C)[C@H]2CC[C@]3(O)C(=O)CO)[C@@]2(C)CCC(=O)C=C12 | 0.2
29 | C[C@H]1C[C@@H]2[C@H]([C@@H](O)C[C@@]3(C)[C@H]2CC[C@]3(O)C(=O)CF)[C@@]2(C)C=CC(=O)C=C12 | 0.2
30 | CC(=O)[C@H]1[C@H](O)C[C@H]2[C@@H]3CCC4=CC(=O)CC[C@]4(C)[C@@]3(F)[C@@H](O)C[C@@]21C | -1.3
31 | C[C@]12CCC(=O)C=C1CC[C@H]1[C@@H]3CC[C@](O)(C(=O)CO)[C@@]3(C)C[C@H](O)[C@@]12F [FLUDROCORTISONE] | 0.9
